# Tests used:
# Assay type in all cases: in vivo
# [1] = system: Artemia salina; assay: Insecticidal model activity against Artemia salina (brine shrimp), 96 well microplate (MIC); settings: 20° C., observed after 24 and 48 hours
# Source text: (§1) As model insects for simple determination of antiparasitic and insecticidal activities, those insects are desired which can be easily obtained and bred in laboratories, and have no pathogenicity to a human. Caenorhabditis elegans, an unparasitic eelworm widely used in experiments of genetics, was used as a typical steam worm, and Artemia salina used as feed for tropical fish and named Brine shrimp, was used instead of insects.
# To a buffer for Artemia salina (obtained by dissolving 0.24% of Tris, 2.57% of sodium chloride, 0.47% of magnesium chloride, 0.07% of potassium chloride, 0.02% of sodium carbonate, 0.64% of magnesium sulfate and 0.11% of calcium chloride in distilled water and adjusting the pH to 7.1 with hydrochloric acid), dried eggs of Artemia salina [Tetra Brine Shrimp Eggs, Warner Lambert Co.] were added. The noprius larvae 1 or 2 days after hatching were used for the experiments.
# (§2) Each well of a 96 well microplate was filled with the solution of the test compound (methanol as a solvent), and the solvent was removed using a vacuum pump, then 250 μl of the assay medium was added to each wells (the assay medium was prepared by dissolving 7.5 mM sodium hydrogencarbonate, 7.5 mM potassium chloride, 7.5 mM calcium chloride dihydrate and 7.5 mM magnesium sulfate heptahydrate in distilled water and adding 0.01% of lecithin thereto), and then the microplate was shaken using a microplate mixer for 15 minutes. To each well, a few individuals of Caenorhabditis elegans were added by softly rubbing the surface of the agar using a toothpick, or a few individuals of Artemia salina were added together with 50 μl of the buffer. The microplate was incubated at 20° C., and then the insects were observed after 24 and 48 hours under a microscope (magnification of 40×). The results were compared to those obtained without addition of the test compound, and evaluated by 4 grades.
# (§3) The evaluation results were shown by indications of 4 grades from 0 to 3.
# (§4) 1: A little week movements
# (§5) Of the 4 grades, Indications 3 and 2 were judged as effective, and Indications 1 and 0 as ineffective. In Table 9, the values for each compound are minimum inhibitory concentrations (MIC) which were required to give Indication 2 (or 3) for Caenorhabditis elegans or Artemia salina. In Table 9, Caenorhabditis elegans and Artemia salina are abbreviated as C.E. and A.S., respectively.
# [2] = system: Caenorhabditis elegans; assay: Antiparasitic activity against Caenorhabditis elegans, 96 well microplate (MIC); settings: 20° C., observed after 24 and 48 hours
# Source text: as §1
# Escherichia. coli for the feed of Caenorhabditis elegans (mutant having uracil requirement) was inoculated in a seed medium for E. coli to which a small amount of uracil was added, and cultured with shaking at 27° C. for 1 day. A petri dish of 6 cm diameter was filled with 10 ml of an agar medium for eelworm proliferation, and the medium was solidified. Then 0.5 ml of the culture of E. coli was spread over the medium in the dish, and the dish was incubated at 37° C. to proliferate E. coli. A piece of the agar was collected with a platinum loop from a petri dish in which Caenorhabditis elegans successfully proliferated, and inoculated in petri dishes in which E. coli was proliferated. The petri dishes were incubated at 20° C. to proliferate Caenorhabditis elegans. Since the life of eelworm is about 2 weeks, subculture was carried out every once a week. The eelworms grown with spread on the surface of the petri dish after 3 to 5 days from subculture were used for the experiments.
# The agar medium for eelworm proliferation was prepared by mixing the solutions in the following proportion: Solution A: 100 ml, Solution B: 0.1 ml, Solution C: 0.05 ml, Solution D: 0.1 ml and Solution E: 2.5 ml (without pH adjustment), and dispensing each 10 ml portion into petri dishes of 60×15 mm.
# In distilled water, 2.0% of bact-trypton (DIFCO Co.), 0.55% of sodium chloride and 0.001% of uracil (SIGMA Co., pH 7.4) were dissolved, and the solution was sterilized in an autoclave at 121° C. for 20 minutes.
# as §2, §3, §4, §5
# [3] = system: Adult Ctenocephalides felis; assay: Test on cat fleas / oral absorption; settings: after 24 hours
# Description: Test on cat fleas/oral absorption
# Test animals: Adult Ctenocephalides felis
# Solvent: Dimethylsulfoxide (DMSO)
# 20 μl of this formulation are added to 4 ml of citrated cow's blood and stirred.
# 20 starved adult fleas (of “Georgi” species of Ctenocephalides felis) are introduced into a chamber (of a diameter of 5 cm) which is sealed with gauze at the top and bottom. A metal cylinder, whose base is sealed with parafilm, is placed on the chamber. […] Whereas the blood is heated to 37° C. a temperature of 25° C. is adjusted in the region of the flea chambers. Controls are mixed with the same volume of DMSO without the addition of any of the compounds. The test are repeated three times.
# After 24 hours the mortality is determined in %.
# [4] = 100 ppm in citrated cow's blood
Structure (SMILES),A.S. minimum inhibitory concentration (MIC) required to give Indication 2 (or 3) [1],C.E. minimum inhibitory concentration (MIC) required to give Indication 2 (or 3) [2],mortality of fleas ([3]; 10 ppm in citrated cow's blood),"mortality of fleas [3, 4]"
"CCC(C)C1OC2(C=CC1C)CC1CC(CC=C(C)C(OC3CC(OC)C(OC4CC(OC)C(=CC=NO)C(C)O4)C(C)O3)C(C)C=CC=C3COC4C(O)C(C)=CC(C(=O)O1)C34O)O2 (single isomer, unassigned) [Compound 9]",0.002 µg/mL,0.01 µg/mL,,
"CCC(C)C1OC2(C=CC1C)CC1CC(CC=C(C)C(OC3CC(OC)C(OC4CC(OC)C(=CC=NO)C(C)O4)C(C)O3)C(C)C=CC=C3COC4C(O)C(C)=CC(C(=O)O1)C34O)O2 (single isomer, unassigned) [Compound 10]",0.002 µg/mL,0.01 µg/mL,,
"CCC(C)C1OC2(C=CC1C)CC1CC(CC=C(C)C(OC3CC(OC)C(OC4CC(OC)C(=CC=NOC)C(C)O4)C(C)O3)C(C)C=CC=C3COC4C(O)C(C)=CC(C(=O)O1)C34O)O2 (single isomer, unassigned) [Compound 12]",0.01 µg/mL,0.01 µg/mL,,
"CCC(C)C1OC2(C=CC1C)CC1CC(CC=C(C)C(OC3CC(OC)C(OC4CC(OC)C(=CC=NOC)C(C)O4)C(C)O3)C(C)C=CC=C3COC4C(O)C(C)=CC(C(=O)O1)C34O)O2 (single isomer, unassigned) [Compound 13]",0.002 µg/mL,0.01 µg/mL,,
CCOC(=O)C=C1C(C)OC(OC2C(C)OC(OC3C(C)=CCC4CC(CC5(C=CC(C)C(C(C)CC)O5)O4)OC(=O)C4C=C(C)C(O[Si](C)(C)C(C)(C)C)C5OCC(=CC=CC3C)C45O)CC2OC)CC1OC (stereo not drawn) [Compound 1],100 µg/mL,100 µg/mL,,
CCC(C)C1OC2(C=CC1C)CC1CC(CC=C(C)C(OC3CC(OC)C(OC4CC(OC)C(=CCO)C(C)O4)C(C)O3)C(C)C=CC=C3COC4C(O[Si](C)(C)C(C)(C)C)C(C)=CC(C(=O)O1)C34O)O2 (stereo not drawn) [Compound 3],20 µg/mL,100 µg/mL,,
CCC(C)C1OC2(C=CC1C)CC1CC(CC=C(C)C(OC3CC(OC)C(OC4CC(OC)C(=CCO)C(C)O4)C(C)O3)C(C)C=CC=C3COC4C(O)C(C)=CC(C(=O)O1)C34O)O2 (stereo not drawn) [Compound 4],0.01 µg/mL,0.01 µg/mL,42%,100%
CCC(C)C1OC2(C=CC1C)CC1CC(CC=C(C)C(OC3CC(OC)C(OC4CC(OC)C(=CC=O)C(C)O4)C(C)O3)C(C)C=CC=C3COC4C(O[Si](C)(C)C(C)(C)C)C(C)=CC(C(=O)O1)C34O)O2 (stereo not drawn) [Compound 5],100 µg/mL,100 µg/mL,,
CCC(C)C1OC2(C=CC1C)CC1CC(CC=C(C)C(OC3CC(OC)C(OC4CC(OC)C(=CC(=O)OC)C(C)O4)C(C)O3)C(C)C=CC=C3COC4C(O[Si](C)(C)C(C)(C)C)C(C)=CC(C(=O)O1)C34O)O2 (stereo not drawn) [Compound 6],≧100 μg/ml,>100 µg/mL,,
CCC(C)C1OC2(C=CC1C)CC1CC(CC=C(C)C(OC3CC(OC)C(OC4CC(OC)C(=CC=O)C(C)O4)C(C)O3)C(C)C=CC=C3COC4C(O)C(C)=CC(C(=O)O1)C34O)O2 (stereo not drawn) [Compound 8],0.01 µg/mL,0.01 µg/mL,,
CCC(C)C1OC2(C=CC1C)CC1CC(CC=C(C)C(OC3CC(OC)C(OC4CC(OC)C(=CCNC)C(C)O4)C(C)O3)C(C)C=CC=C3COC4C(O)C(C)=CC(C(=O)O1)C34O)O2 (stereo not drawn) [Compound 11],0.01 µg/mL,0.05 µg/mL,,
CCC(C)C1OC2(C=CC1C)CC1CC(CC=C(C)C(OC3CC(OC)C(OC4CC(OC)C(=CCN)C(C)O4)C(C)O3)C(C)C=CC=C3COC4C(O[Si](C)(C)C(C)(C)C)C(C)=CC(C(=O)O1)C34O)O2 (stereo not drawn) [Compound 14],5 µg/mL,100 µg/mL,,
CCC(C)C1OC2(C=CC1C)CC1CC(CC=C(C)C(OC3CC(OC)C(OC4CC(OC)C(=CCOC(=O)c5ccncc5)C(C)O4)C(C)O3)C(C)C=CC=C3COC4C(O[Si](C)(C)C(C)(C)C)C(C)=CC(C(=O)O1)C34O)O2 (stereo not drawn) [Compound 17],100 µg/mL,100 µg/mL,,
C=CCOC(=O)C=C1C(C)OC(OC2C(C)OC(OC3C(C)=CCC4CC(CC5(C=CC(C)C(C(C)CC)O5)O4)OC(=O)C4C=C(C)C(O)C5OCC(=CC=CC3C)C45O)CC2OC)CC1OC (stereo not drawn) [Compound 20],0.002 µg/mL,0.01 µg/mL,,
CCC(C)C1OC2(C=CC1C)CC1CC(CC=C(C)C(OC3CC(OC)C(OC4CC(OC)C(=CC=NNC(N)=O)C(C)O4)C(C)O3)C(C)C=CC=C3COC4C(O)C(C)=CC(C(=O)O1)C34O)O2 (stereo not drawn) [Compound 22],0.0005 µg/mL,0.01 µg/mL,,
CCC(C)C1OC2(C=CC1C)CC1CC(CC=C(C)C(OC3CC(OC)C(OC4CC(OC)C(=CC(=O)O)C(C)O4)C(C)O3)C(C)C=CC=C3COC4C(O)C(C)=CC(C(=O)O1)C34O)O2 (stereo not drawn) [Compound 25],0.01 µg/mL,0.05 µg/mL,69%,100%
CCC(C)C1OC2(C=CC1C)CC1CC(CC=C(C)C(OC3CC(OC)C(OC4CC(OC)C(=CCOC(=O)C5CCCN5C(=O)OC(C)(C)C)C(C)O4)C(C)O3)C(C)C=CC=C3COC4C(O)C(C)=CC(C(=O)O1)C34O)O2 (stereo not drawn) [Compound 30],0.01 µg/mL,0.05 µg/mL,,
CCC(C)C1OC2(C=CC1C)CC1CC(CC=C(C)C(OC3CC(OC)C(OC4CC(OC)C(=CCOC(=O)c5ccc(Cl)nc5)C(C)O4)C(C)O3)C(C)C=CC=C3COC4C(O)C(C)=CC(C(=O)O1)C34O)O2 (stereo not drawn) [Compound 34],0.002 µg/mL,0.002 µg/mL,,
CCC(C)C1OC2(CC(=O)C1C)CC1CC(CC=C(C)C(OC3CC(OC)C(OC4CC(OC)C(=CC(=O)OC)C(C)O4)C(C)O3)C(C)C=CC=C3COC4C(O)C(C)=CC(C(=O)O1)C34O)O2 (stereo not drawn) [Compound 41],0.01 µg/mL,0.01 µg/mL,,

# From patent US6605595B1, “Avermectin derivatives” (The Kitasato Institute, priority 1999, dated 2003)
